# Activity calls are given as the source filed them. For most assays here, no stated cut-off is given here; in the data, actives have a measured EC50 and inactives only a lower limit.
# Legend:
# [1] = biological target: Heat shock protein HSP 90-alpha (Homo sapiens, UniProt P07900); assay type: functional, organism-based
# Protein skinhead-1 = biological target: T1, Protein skinhead-1 (Caenorhabditis elegans, UniProt P34707); assay type: functional
# T1 sequence (P34707 whole entry): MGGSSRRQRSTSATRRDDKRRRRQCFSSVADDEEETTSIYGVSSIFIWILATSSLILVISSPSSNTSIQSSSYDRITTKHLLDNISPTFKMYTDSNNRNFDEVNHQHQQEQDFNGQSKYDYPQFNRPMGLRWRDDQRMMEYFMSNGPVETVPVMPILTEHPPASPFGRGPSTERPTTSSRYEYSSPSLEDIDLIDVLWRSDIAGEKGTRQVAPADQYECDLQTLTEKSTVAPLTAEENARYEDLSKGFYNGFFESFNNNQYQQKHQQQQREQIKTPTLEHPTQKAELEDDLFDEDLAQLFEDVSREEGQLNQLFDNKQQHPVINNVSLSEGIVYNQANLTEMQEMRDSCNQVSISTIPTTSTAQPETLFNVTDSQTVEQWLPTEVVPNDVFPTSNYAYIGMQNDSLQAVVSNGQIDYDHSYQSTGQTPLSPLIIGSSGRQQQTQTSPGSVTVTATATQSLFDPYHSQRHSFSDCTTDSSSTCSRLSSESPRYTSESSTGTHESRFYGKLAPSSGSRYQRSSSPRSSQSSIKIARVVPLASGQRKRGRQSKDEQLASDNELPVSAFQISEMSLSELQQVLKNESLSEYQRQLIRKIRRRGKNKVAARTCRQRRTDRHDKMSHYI
# H9c2 = assay: cells; assay type: functional, cell-based; conditions: Rattus norvegicus, H9c2, Myocardium;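 further: confirmatory concentration-response retest of ultra-high-throughput screening hits for modulation of myocardial damage; cell death induced by hydrogen peroxide oxidative stress; compound pretreatment for 60 min then peroxide exposure for 2 h; potency is for protecting the cells against peroxide damage rather than for killing them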
# [2] = biological target: Luciferin 4-monooxygenase (Photinus pyralis, UniProt P08659); assay: inhibition of purified Photinus pyralis luciferase – biochemical, luminescence, dose response (AID 1891)
# Luciferin 4-monooxygenase, sequence (P08659 whole entry): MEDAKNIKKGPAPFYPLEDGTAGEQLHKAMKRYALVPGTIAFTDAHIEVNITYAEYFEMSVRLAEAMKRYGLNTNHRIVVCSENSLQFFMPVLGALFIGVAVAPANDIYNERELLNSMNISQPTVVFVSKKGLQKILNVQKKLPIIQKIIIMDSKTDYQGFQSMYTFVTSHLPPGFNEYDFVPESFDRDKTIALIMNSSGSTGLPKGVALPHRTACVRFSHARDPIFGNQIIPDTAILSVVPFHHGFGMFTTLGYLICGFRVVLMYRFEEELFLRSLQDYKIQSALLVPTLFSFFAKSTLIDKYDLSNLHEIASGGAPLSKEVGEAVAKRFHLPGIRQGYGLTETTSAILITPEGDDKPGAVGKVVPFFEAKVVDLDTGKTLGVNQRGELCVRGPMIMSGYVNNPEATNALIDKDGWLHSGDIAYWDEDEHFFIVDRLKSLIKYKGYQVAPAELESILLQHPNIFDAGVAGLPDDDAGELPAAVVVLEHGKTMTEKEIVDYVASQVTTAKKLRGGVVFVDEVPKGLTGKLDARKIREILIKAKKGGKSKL
# [3] = Luminescence Cell-Based Dose Confirmation HTS to Identify Inhibitors of Platelet Dense Granule Release. [Related pubchem assays: 1663 (Primary HTS), 1678 (Summary of Project)]; assay type: functional
# [4] = NIH-3T3 fibroblast cytotoxicity, dose response, cytotoxicity control, cell-based, fluorescence, Alamar Blue, secondary assay (AID 2327); assay type: functional;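 further: NIH-3T3 mouse fibroblasts cultured with fluconazole at 8 µg/mL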
# [5] = fluconazole-exposed Candida albicans growth modulators – fluorescence, retest, confirmation (AID 2467); assay type: functional, cell-based
# [6] = P. falciparum Dd2 growth inhibitors, dose response, SYBR Green, cherry-picked samples (AID 1159567); assay type: functional, cell-based
# [7] = Trypanosoma cruzi growth suppression in host cells – NIH3T3 host cells, beta-gal luminescence, confirmation (AID 2044); assay type: functional, cell-based;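 further: intracellular parasites grown in NIH/3T3 mouse fibroblasts as host cells; luminescent beta-galactosidase reporter signal from transgenic T. cruzi replicating inside host cells; inhibitors lower the luminescence signal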
# [8] = NIH3T3 cell viability loss – ATP luminescence, mouse fibroblasts, counter-screen, dose response (AID 2010); assay type: functional, cell-based;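 further: cells exposed to compound for about 90 hours before reading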
# INS1 = assay: INS-1E survival protection against cytokine death – cell-based, luminescence, retest, dose response (AID 449756); assay type: functional; conditions: Rattus norvegicus;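 further: cell death triggered by IL-1 beta plus TNF-alpha plus IFN-gamma mixture; protective hits raise ATP signal compared with cytokine alone wells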
# [9] = Luminescence Cell-Based Dose Retest to Confirm Inhibitors of Cancer Stem Cells. [Related pubchem assays (depositor defined):AID2717, AID2721]; assay type: functional; conditions: Homo sapiens
# Large T antigen = Large T antigen (Simian virus 40, UniProt P03070); assay type: functional, Betapolyomavirus macacae;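 further: Confirmatory-stage PubChem screen for compounds that inhibit SV40 T antigen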
# Large T antigen, sequence (P03070 whole entry): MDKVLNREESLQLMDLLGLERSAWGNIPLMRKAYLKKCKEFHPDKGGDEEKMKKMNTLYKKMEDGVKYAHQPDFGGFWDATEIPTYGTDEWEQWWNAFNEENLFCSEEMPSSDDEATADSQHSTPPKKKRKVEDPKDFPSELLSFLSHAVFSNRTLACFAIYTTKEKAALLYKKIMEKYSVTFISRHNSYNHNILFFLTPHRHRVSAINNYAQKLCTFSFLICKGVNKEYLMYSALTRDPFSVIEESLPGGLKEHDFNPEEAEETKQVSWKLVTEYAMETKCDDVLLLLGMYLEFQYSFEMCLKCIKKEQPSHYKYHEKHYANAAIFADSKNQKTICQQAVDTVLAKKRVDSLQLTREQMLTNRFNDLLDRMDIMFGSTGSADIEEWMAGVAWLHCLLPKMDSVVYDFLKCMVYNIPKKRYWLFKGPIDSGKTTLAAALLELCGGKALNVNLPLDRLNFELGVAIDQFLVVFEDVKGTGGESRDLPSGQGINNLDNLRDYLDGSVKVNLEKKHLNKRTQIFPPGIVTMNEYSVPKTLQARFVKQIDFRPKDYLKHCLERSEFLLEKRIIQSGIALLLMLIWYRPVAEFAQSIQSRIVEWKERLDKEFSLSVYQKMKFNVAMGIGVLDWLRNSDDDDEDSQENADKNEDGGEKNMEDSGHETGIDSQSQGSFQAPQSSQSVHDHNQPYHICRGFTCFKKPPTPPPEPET
# [10] = luciferase reporter signal suppression in cells – H4 neuroglioma cells, luminescence, dose response (AID 1990); assay type: functional, cell-based
# [11] = system: Streptococcus sp. 'group A'; assay: Streptococcus pyogenes SK(-)GAS viability under kanamycin – luminescence, BacTiterGlo, confirmation, counter-screen for streptokinase expression inhibitor project, dose response (AID 1900); assay type: functional, organism-based
# [12] = Luminescence Cell-Based Dose Response HTS to Identify Inhibitors of 5'UTR Stem-Loop Driven Prion Protein mRNA Translation in H4 Neuroglioblastoma Cells. [Related pubchem assays: 1827 (Project Summary), 1813 (Primary HTS)]; assay type: functional
# [13] = alpha-synuclein stem-loop luciferase translation blockers – H4 neuroglioma cells, luminescence, confirmation (AID 1988); assay type: functional, cell-based
# Streptokinase A = biological target: T2, Streptokinase A (Streptococcus pyogenes serotype M1, UniProt P10520); assay: viability-normalized secreted streptokinase activity reduction – plasminogen activation absorbance, OD405, dose response (AID 1914); assay type: functional, Streptococcus pyogenes M1 GAS;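 further: secreted streptokinase activity via plasminogen activation per viability signal from cell pellet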
# T2 sequence (P10520 whole entry): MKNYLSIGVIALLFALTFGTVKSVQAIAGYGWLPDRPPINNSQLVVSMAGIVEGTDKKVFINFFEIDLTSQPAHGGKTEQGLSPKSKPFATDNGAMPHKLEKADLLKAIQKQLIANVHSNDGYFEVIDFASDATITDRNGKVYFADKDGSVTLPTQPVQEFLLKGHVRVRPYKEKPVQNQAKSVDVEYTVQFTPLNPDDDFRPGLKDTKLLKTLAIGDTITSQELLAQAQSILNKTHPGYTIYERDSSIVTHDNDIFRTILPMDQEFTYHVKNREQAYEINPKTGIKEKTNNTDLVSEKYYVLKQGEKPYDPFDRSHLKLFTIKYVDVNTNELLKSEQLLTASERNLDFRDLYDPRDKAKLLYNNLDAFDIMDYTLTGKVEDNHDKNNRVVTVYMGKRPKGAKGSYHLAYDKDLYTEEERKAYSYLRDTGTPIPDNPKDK
# Streptococcus = assay: GAS UMAA2166 growth inhibition – luminescence, BacTiterGlo, counter-screen for streptokinase expression inhibitor project, dose response (AID 1915); assay type: functional, organism-based;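 further: potency for reduction of bacterial viability or growth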
# [14] = biological target: T3, Calpain-2 catalytic subunit (Sus scrofa, UniProt P43367); assay: m-calpain protease blockers, concentration series – biochemical, fluorogenic peptide substrate, dose response (AID 1420); assay type: functional
# T3 sequence (P43367 whole entry): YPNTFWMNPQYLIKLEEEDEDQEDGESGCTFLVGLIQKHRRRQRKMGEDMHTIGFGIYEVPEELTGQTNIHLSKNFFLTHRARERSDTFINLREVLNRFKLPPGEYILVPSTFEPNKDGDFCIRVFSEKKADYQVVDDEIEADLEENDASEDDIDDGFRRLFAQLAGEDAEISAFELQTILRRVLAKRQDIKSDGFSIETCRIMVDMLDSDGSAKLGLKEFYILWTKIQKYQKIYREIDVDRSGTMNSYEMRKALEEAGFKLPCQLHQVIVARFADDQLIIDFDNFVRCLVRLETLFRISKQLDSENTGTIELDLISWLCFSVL
# Paired box protein Pax-8 = Paired box protein Pax-8 (Homo sapiens, UniProt Q06710); assay: PAX8 transcriptional activity inhibition in RMG-I – RMG-I cells, luciferase, cherry-pick, dose response (AID 687027); assay type: functional, cell-based;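 further: luciferase reporter driven by Pax8 target thyroperoxidase promoter measured by SteadyGlo luminescence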
# Paired box protein Pax-8, sequence (Q06710 whole entry): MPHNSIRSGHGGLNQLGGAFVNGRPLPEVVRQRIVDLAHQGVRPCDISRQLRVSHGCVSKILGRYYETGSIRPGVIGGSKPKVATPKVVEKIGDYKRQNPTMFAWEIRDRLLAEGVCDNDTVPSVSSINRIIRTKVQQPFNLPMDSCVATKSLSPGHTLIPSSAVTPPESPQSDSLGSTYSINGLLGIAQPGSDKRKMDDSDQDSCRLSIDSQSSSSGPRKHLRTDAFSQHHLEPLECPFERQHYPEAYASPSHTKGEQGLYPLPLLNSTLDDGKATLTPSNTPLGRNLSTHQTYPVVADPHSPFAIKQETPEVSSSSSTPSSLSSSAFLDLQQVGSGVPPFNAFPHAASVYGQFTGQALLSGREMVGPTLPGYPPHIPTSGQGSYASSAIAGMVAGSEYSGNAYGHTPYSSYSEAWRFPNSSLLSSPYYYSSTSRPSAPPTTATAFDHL
# BJ [15] = assay: BJ-TERT fibroblast viability loss – cell-based, RAS-independent, luminescence, dose response (AID 1933); assay type: functional; conditions: Homo sapiens
# BJ [16] = assay: cells; assay type: functional, cell-based; conditions: Homo sapiens
# BJ [17] = assay: BJ-TERT-LT-ST fibroblast viability loss – cell-based, RAS-independent, luminescence, dose response (AID 1935); assay type: functional; conditions: Homo sapiens;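 further: BJ fibroblasts immortalized with TERT plus LT and ST oncogenes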
# [18] = DRD fibroblast viability loss – cell-based, non-viral oncogenic, luminescence, dose response (AID 1934); assay type: functional; conditions: Homo sapiens
smiles,measurement,setting,value
Cc1ccc(O)c(-c2cc(-c3cccc(F)c3)[nH]n2)c1,AC50,[1],25.4 µM (active)
same,IC50,Protein skinhead-1,> 100 µM (inactive)
COc1ccc(-c2nnc3sc(-c4ccco4)nn23)cc1OC,IC50,H9c2,> 79 µM (inactive)
COC(=O)c1ccc(Cn2nnc3c(O)nc(C4CCCN(S(=O)(=O)c5ccccc5)C4)nc32)cc1 (centres undefined),IC50,H9c2,18.3 µM (active)
O=C1Cc2ccccc2Sc2ccc(Cl)cc21,EC50,[2],> 112 µM (not active)
same,EC50,[3],> 112 µM (not active)
Cc1ccc(C(=O)NC(=S)NNC(=O)c2ccccc2[N+](=O)[O-])cc1,EC50,[4],18.8 µM (inconclusive)
same,EC50,[5],> 38 µM (not active)
CC1(C)C(=O)C(c2nc3ccccc3[nH]2)=C(N)N1c1ccccc1,EC50,[4],58.9 µM (active)
same,EC50,[5],5.1 µM (active)
C[C@@H](C(=O)N(C)C[C@@H]1OCc2ccccc2-c2c(n(C)c3ccccc23)C(=O)N([C@@H](C)CO)C[C@@H]1C)c1ccccc1,AC50,[6],6.3 µM (active)
O=C(CCS(=O)(=O)c1ccccc1)Nc1ncc([N+](=O)[O-])s1,EC50,[4],> 150 µM (inactive)
same,EC50,[5],0.746 µM (active)
O=C(N1CCOCC1)N1CCN(S(=O)(=O)N2CCOCC2)CC1,EC50,[2],> 112 µM (not active)
same,EC50,[3],> 112 µM (not active)
O=c1cc(-c2ccccc2)cc(-c2ccccc2)n1O,AC50,[1],1.13 µM (active)
Cc1cc([N+](=O)[O-])ccc1NC(=O)CSc1nncn1-c1cccnc1,EC50,[2],> 112 µM (not active)
same,EC50,[3],> 112 µM (not active)
Cc1ccnc(NC(=O)c2ccc([N+](=O)[O-])s2)c1,EC50,[7],0.743 µM (active)
same,EC50,[8],> 60 µM (not active)
same,AC50,INS1,6.55 µM (active)
O=C(Cn1c(S)nc2ccccc21)c1ccccc1,EC50,[2],> 112 µM (not active)
same,EC50,[3],> 112 µM (not active)
COC(=O)c1cnn2c(O)c(Cc3ccc(F)cc3Cl)c(C)nc12,EC50,[4],> 150 µM (inactive)
same,EC50,[5],1.33 µM (active)
C/C(N)=C(/C#N)C(=O)COC(=O)c1cc(-c2ccc(C)cc2)nc2ccccc12,AC50,[9],17.4 µM (active)
same,AC50,INS1,> 260 µM (inactive)
O=C(CCSc1ccc(Cl)cc1)N1CCN(c2ccc(O)cc2)CC1,IC50,Large T antigen,6.74 µM (active)
same,EC50,[7],0.169 µM (active)
same,EC50,[8],6.9 µM (active)
same,AC50,[9],2.51 µM (active)
COc1ccccc1NC(=O)c1c(Nc2ccccc2F)sc(C(=O)Nc2cccc(Cl)c2)c1N,AC50,[9],1.16 µM (active)
CCCCCCCCCCOC(=O)C[N+](C)(C)C/C=C(/C)Cl,AC50,INS1,13.3 µM (active)
CC1=CS/C(=C(/C#N)C(=O)N2CCOCC2)N1c1ccccc1,EC50,[2],> 112 µM (not active)
same,EC50,[3],> 112 µM (not active)
CCOc1ccccc1CNS(=O)(=O)c1c[nH]cn1,EC50,[2],> 112 µM (not active)
same,EC50,[3],> 112 µM (not active)
O=C(N/N=C/c1cc([N+](=O)[O-])ccc1O)c1cccc(NC(=O)c2cccc(Cl)c2)c1,EC50,[10],12.7 µM (active)
same,EC50,[11],5.18 µM (active)
same,EC50,[12],13.3 µM (active)
same,EC50,[13],10.6 µM (active)
same,EC50,Streptokinase A,> 150 µM (not active)
same,EC50,Streptococcus,18.7 µM (active)
same,AC50,INS1,2.18 µM (active)
N#CC(c1ccncc1)(c1ncc(C(F)(F)F)cc1Cl)N1CCOCC1 (centres undefined),IC50,[14],19.2 µM (not active)
Cc1ccc(S(=O)(=O)Nc2ccc3c(c2)C(=O)N([C@@H](C)CO)C[C@@H](C)[C@H](CN(C)Cc2ccc(Cl)c(Cl)c2)OCCCC[C@@H](C)O3)cc1,AC50,Paired box protein Pax-8,7.92 µM (active)
O=C(NCc1cccnc1)C(=O)NCC1OCCN1S(=O)(=O)c1ccccc1 (centres undefined),EC50,[2],> 112 µM (not active)
same,EC50,[3],> 112 µM (not active)
Oc1nc(SCc2ccccc2Cl)nc(-c2ccc(Cl)cc2)n1,IC50,[14],4.51 µM (not active)
COc1ccc(CCNC(=O)c2cc(S(=O)(=O)N3CCOCC3)cn2C)cc1OC,EC50,[2],> 112 µM (not active)
same,EC50,[3],> 112 µM (not active)
Cc1cccc(-c2noc(CN(C(=O)/C=C/c3ccccc3Cl)C(C)C)n2)c1,IC50,[14],13.3 µM (not active)
C=C(C)C(=O)OC1(C(F)(F)F)Oc2cc(C)ccc2NC1=O (centres undefined),AC50,Paired box protein Pax-8,9.05 µM (active)
COc1ccc(C#Cc2ccc3c(c2)[C@H]2[C@H](CCN2C(=O)c2ccccn2)[C@H](CO)N3)cc1,AC50,[6],5.61 µM (active)
OC(COc1ccccc1)Cn1c2ccccc2c2ccccc21 (centres undefined),IC50,[14],7.48 µM (not active)
CCN=C(S)NNC(=O)c1cc(-c2ccc(OC)cc2)nc2ccccc12,EC50,[4],> 160 µM (inactive)
same,EC50,BJ [15],9.62 µM (active)
same,EC50,BJ [16],14 µM (active)
same,EC50,[5],> 38 µM (not active)
same,EC50,[2],0.107 µM (active)
same,EC50,[3],1.38 µM (active)
same,EC50,BJ [17],> 150 µM (not active)
same,EC50,[18],11 µM (active)
CCn1cc(C(=O)N[C@@H](CCSC)C(=O)NCCCn2ccnc2)c(=O)c2cc3c(cc21)OCO3,EC50,[2],> 112 µM (not active)
same,EC50,[3],> 112 µM (not active)
C=CCNc1ccc(N2C(=O)C3CCC(C)CC3C2=O)cc1[N+](=O)[O-] (centres undefined),IC50,[14],4.48 µM (not active)
COC(=O)c1ccc(NC2(C#N)C(=O)Nc3ccccc32)cc1 (centres undefined),IC50,[14],> 50 µM (not active)
Cc1ccc2c(c1)C1CN(C)CCC1N2Sc1ccccc1[N+](=O)[O-] (centres undefined),EC50,[4],> 150 µM (inactive)
same,EC50,[5],> 38 µM (not active)

# Reference: ChEMBL document CHEMBL1201862, “PubChem BioAssay data set” (2004)
